# Results as given in PubChem BioAssay (NCI).
#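 A five-concentration, 48-hour dose response in 96-well plates underlies each endpoint, interpolated linearly between surrounding concentrations. Definition used: TGI = concentration required for complete inhibition of growth.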
# Legend:
# Test in all cases: NCI tumour cell line growth inhibition, 48 h
# [1] = test system: ACHN renal
# [2] = test system: SF-268 CNS
# [3] = test system: MOLT-4 leukemia
# [4] = test system: RPMI-8226 leukemia
# [5] = test system: SK-MEL-5 melanoma
# [6] = test system: HS 578T breast
# [7] = test system: 786-0 renal
# [8] = test system: HOP-62 NSCLC
# [9] = test system: NCI-H460 lung
# [10] = test system: CAKI-1 renal
# [11] = test system: HL-60(TB) leukemia
# [12] = test system: NCI-H522 lung
# [13] = test system: CCRF-CEM leukemia
# [14] = test system: PC-3 prostate
# [15] = test system: OVCAR-4 ovarian
# [16] = test system: OVCAR-5 ovarian
# [17] = test system: MDA-N
# [18] = test system: SN12C renal
# [19] = test system: MDA-MB-435
# [20] = test system: NCI-H226 lung
# [21] = test system: DU-145 prostate
# [22] = test system: A498 renal
# [23] = test system: EKVX NSCLC
# [24] = test system: A549 NSCLC
# [25] = test system: U251 CNS
# [26] = test system: K-562 leukemia
# [27] = test system: MDA-MB-231 breast
# [28] = test system: HOP-92 NSCLC
# [29] = test system: NCI-H23 lung
# [30] = test system: IGROV1 ovarian
# [31] = test system: SF-295 CNS
# [32] = test system: LOX IMVI melanoma
# [33] = test system: OVCAR-3 ovarian
# [34] = test system: HT29 colon
# [35] = test system: SK-OV-3 ovarian
# [36] = test system: TK-10 renal
# [37] = test system: SK-MEL-2 melanoma
# [38] = test system: SK-MEL-28 melanoma
# [39] = test system: HCT-116 colon
# [40] = test system: RXF 393 renal
# [41] = test system: UACC-257 melanoma
# [42] = test system: UO-31 renal
# [43] = test system: BT-549 breast
# [44] = test system: MALME-3M melanoma
# [45] = test system: SF-539 CNS
# [46] = test system: KM12 colon
# [47] = test system: SNB-75 CNS
# [48] = test system: UACC-62 melanoma
# [49] = test system: OVCAR-8 ovarian
# [50] = test system: MCF7 breast
# [51] = test system: HCC-2998 colon
# [52] = test system: NCI/ADR-RES ovarian
# [53] = test system: SNB-19 CNS
# [54] = test system: T-47D breast
# [55] = test system: COLO 205 colon
# [56] = test system: M14 melanoma
# [57] = test system: HCT-15 colon
# [58] = test system: SW-620 colon
# [59] = test system: SR leukemia
structure (smiles),measurement,setting,value
CCC/C(Cl)=N\OC(=O)Nc1ccc(OC(F)(F)F)cc1,TGI,[1],4.41 µM
same,TGI,[2],> 84.7 µM
same,TGI,[3],4.59 µM
same,TGI,[4],4.43 µM
same,TGI,[5],21.7 µM
same,TGI,[6],> 70.7 µM
same,TGI,[7],26.1 µM
same,TGI,[8],35.5 µM
same,TGI,[9],40.1 µM
same,TGI,[10],3.05 µM
same,TGI,[11],> 20.6 µM
same,TGI,[12],2.39 µM
same,TGI,[13],> 26.7 µM
same,TGI,[14],32.8 µM
same,TGI,[15],39.8 µM
same,TGI,[16],35.9 µM
same,TGI,[17],28.2 µM
same,TGI,[18],21.1 µM
same,TGI,[19],49.9 µM
same,TGI,[20],34.5 µM
same,TGI,[21],33.4 µM
same,TGI,[22],54.8 µM
same,TGI,[23],40.1 µM
same,TGI,[24],42.3 µM
same,TGI,[25],> 58.1 µM
same,TGI,[26],> 20.1 µM
same,TGI,[27],25.8 µM
same,TGI,[28],4.48 µM
same,TGI,[29],53.8 µM
same,TGI,[30],22 µM
same,TGI,[31],31.7 µM
same,TGI,[32],8.78 µM
same,TGI,[33],25.2 µM
same,TGI,[34],42.4 µM
same,TGI,[35],34.2 µM
same,TGI,[36],12.4 µM
same,TGI,[37],32.9 µM
same,TGI,[38],41.9 µM
same,TGI,[39],> 51.6 µM
same,TGI,[40],31.2 µM
same,TGI,[41],39.8 µM
same,TGI,[42],23.3 µM
same,TGI,[43],56.6 µM
same,TGI,[44],4.22 µM
same,TGI,[45],33.3 µM
same,TGI,[46],30.8 µM
same,TGI,[47],35.8 µM
same,TGI,[48],48.7 µM
same,TGI,[49],36.3 µM
same,TGI,[50],40.3 µM
same,TGI,[51],38.6 µM
same,TGI,[52],> 25.3 µM
same,TGI,[53],> 58.7 µM
same,TGI,[54],7.65 µM
same,TGI,[55],3.54 µM
same,TGI,[56],18.5 µM
NNC(=O)CSc1nc2ccccc2c(=O)n1N,TGI,[1],99.1 µM
same,TGI,[2],> 100 µM
same,TGI,[3],> 100 µM
same,TGI,[4],> 100 µM
same,TGI,[5],> 100 µM
same,TGI,[6],98.8 µM
same,TGI,[7],57.4 µM
same,TGI,[9],> 100 µM
same,TGI,[57],> 100 µM
same,TGI,[10],> 100 µM
same,TGI,[58],> 100 µM
same,TGI,[12],> 100 µM
same,TGI,[13],> 100 µM
same,TGI,[14],> 100 µM
same,TGI,[15],> 100 µM
same,TGI,[16],> 100 µM
same,TGI,[17],> 100 µM
same,TGI,[18],> 100 µM
same,TGI,[19],> 100 µM
same,TGI,[20],> 100 µM
same,TGI,[21],> 100 µM
same,TGI,[22],> 100 µM
same,TGI,[23],> 100 µM
same,TGI,[24],> 100 µM
same,TGI,[25],89.3 µM
same,TGI,[26],> 100 µM
same,TGI,[59],> 100 µM
same,TGI,[27],61.2 µM
same,TGI,[28],57.7 µM
same,TGI,[29],> 100 µM
same,TGI,[30],> 100 µM
same,TGI,[31],> 100 µM
same,TGI,[32],> 100 µM
same,TGI,[33],> 100 µM
same,TGI,[34],> 100 µM
same,TGI,[36],40.9 µM
same,TGI,[37],66.9 µM
same,TGI,[38],> 100 µM
same,TGI,[39],> 100 µM
same,TGI,[40],95.5 µM
same,TGI,[41],> 100 µM
same,TGI,[42],> 100 µM
same,TGI,[43],> 100 µM
same,TGI,[44],> 100 µM
same,TGI,[45],> 100 µM
same,TGI,[46],> 100 µM
same,TGI,[47],33 µM
same,TGI,[48],> 100 µM
same,TGI,[49],> 100 µM
same,TGI,[50],> 100 µM
same,TGI,[51],> 100 µM
same,TGI,[52],> 100 µM
same,TGI,[53],44.6 µM
same,TGI,[54],> 100 µM
same,TGI,[55],> 100 µM
same,TGI,[56],> 100 µM
